Assay results from patent publication US8663632B1, “Compositions and methods for selectively targeting cancer cells using a thiaminase compound” (University of Kentucky Research Foundation, priority 2008, dated 2014).

System: GRP78 and UPR pathway proteins in breast cancer cell lines
Test: Immunoblot analysis of energy and UPR pathway proteins
Type: cell-based, human
Conditions: tunicamycin 5 μg/ml, thapsigargin 1 μM; all four breast cancer cell lines
Procedure: Cells were treated with thiaminase or anti-cancer agent for the indicated times and washed with ice-cold PBS. Cells were lysed with a triple-detergent lysis buffer (50 mM Tris pH8.0, 150 mM NaCl, 1% NP-40, 0.5% DOC, 0.1% SDS, 0.02% sodium azide and protease inhibitors). Equal amounts of protein were loaded into each well and separated by 10% SDS-PAGE gel, followed by transfer onto nitrocellulose membranes. The membranes were blocked, incubated with the indicated primary antibodies at 4° C. overnight, and the appropriate horseradish peroxidase-conjugated secondary antibody was added for 1 hour at room temperature. Immunoblots were developed by use of the enhanced chemiluminescence (ECL) detection system (Pierce, Rockford, Ill.) according to the manufacturer's protocol and autoradiography. All of the primary antibodies were purchased from Cell Signaling Technologies (Danvers, MA). The secondary antibodies were purchased from Sigma (St. Louis, Mo.). An anti-β-actin antibody was used as a control for protein loading.

Row | Compound | GRP78 induction
1 | C/C=C(/C)C(=O)O[C@H]1C(C)=C2[C@H]([C@@H]1OC(=O)CCCCCCC)[C@@](C)(OC(C)=O)C[C@H](OC(=O)CCC)[C@@]1(O)[C@H]2OC(=O)[C@@]1(C)O [thapsigargin] | marked induction
2 | tunicamycin | marked induction
